This note sets out measurements from patent US9221808B2, “Pyridylthiazole-based ureas as inhibitors of Rho associated protein kinase (ROCK) and methods of use” (H. Lee Moffitt Cancer Center and Research Institute, Inc., priority 2010, dated 2015).

“And” between values parts separate entries of the source, which are not always exact repeats. Identical values can stand only once. Counter-ions that a name gives are not always drawn.

Chain of ROCK1 (Q13464 whole entry, species assumed): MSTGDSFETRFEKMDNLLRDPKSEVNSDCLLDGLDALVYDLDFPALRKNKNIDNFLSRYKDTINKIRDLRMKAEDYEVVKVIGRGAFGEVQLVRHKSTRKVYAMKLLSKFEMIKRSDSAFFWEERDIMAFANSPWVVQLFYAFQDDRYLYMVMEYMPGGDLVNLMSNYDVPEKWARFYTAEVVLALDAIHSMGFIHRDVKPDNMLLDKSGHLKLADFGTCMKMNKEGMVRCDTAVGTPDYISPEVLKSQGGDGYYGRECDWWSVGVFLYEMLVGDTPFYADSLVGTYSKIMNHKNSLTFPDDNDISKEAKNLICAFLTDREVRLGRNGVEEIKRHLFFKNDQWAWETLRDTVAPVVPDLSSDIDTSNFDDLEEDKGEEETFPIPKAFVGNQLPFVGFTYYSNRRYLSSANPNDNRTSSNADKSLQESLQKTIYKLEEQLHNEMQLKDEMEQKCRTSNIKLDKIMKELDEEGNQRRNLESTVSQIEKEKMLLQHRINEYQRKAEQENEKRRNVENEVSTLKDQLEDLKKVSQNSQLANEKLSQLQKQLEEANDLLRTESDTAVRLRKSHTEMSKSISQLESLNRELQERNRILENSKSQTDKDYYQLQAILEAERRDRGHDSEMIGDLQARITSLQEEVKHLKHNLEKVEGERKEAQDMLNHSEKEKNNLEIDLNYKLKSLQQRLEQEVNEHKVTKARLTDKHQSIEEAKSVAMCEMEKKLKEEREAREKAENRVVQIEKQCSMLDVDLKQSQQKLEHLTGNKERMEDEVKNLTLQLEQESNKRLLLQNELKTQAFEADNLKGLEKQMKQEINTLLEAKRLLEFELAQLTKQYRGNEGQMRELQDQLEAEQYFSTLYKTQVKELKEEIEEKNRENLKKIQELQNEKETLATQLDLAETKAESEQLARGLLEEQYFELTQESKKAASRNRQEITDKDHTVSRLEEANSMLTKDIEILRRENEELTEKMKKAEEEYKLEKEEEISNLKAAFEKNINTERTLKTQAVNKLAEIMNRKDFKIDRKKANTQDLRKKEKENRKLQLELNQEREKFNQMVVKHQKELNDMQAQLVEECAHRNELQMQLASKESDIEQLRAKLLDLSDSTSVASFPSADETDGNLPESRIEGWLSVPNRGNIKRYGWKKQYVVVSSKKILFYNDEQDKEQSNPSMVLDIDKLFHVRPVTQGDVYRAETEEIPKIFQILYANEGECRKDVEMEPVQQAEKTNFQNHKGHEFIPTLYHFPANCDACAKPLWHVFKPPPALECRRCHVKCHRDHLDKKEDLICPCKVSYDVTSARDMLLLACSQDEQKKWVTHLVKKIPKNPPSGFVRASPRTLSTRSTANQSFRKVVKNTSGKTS

For the first test, the target named is ROCK2 (Homo sapiens (Human), UniProt O75116). Kind of test: FRET-based Z'-Lyte kinase assay, ROCK2.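 Also: kinase phosphorylates a coumarin/fluorescein FRET peptide, then a protease cleaves unphosphorylated peptide, read as donor/acceptor emission ratio after 400 nm excitation.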 Format: biochemical. The conditions noted are these: hydrochloride; read-out: IC50 ± SD (μM) ROCK2.
Chain of ROCK2 (O75116 whole entry, species assumed): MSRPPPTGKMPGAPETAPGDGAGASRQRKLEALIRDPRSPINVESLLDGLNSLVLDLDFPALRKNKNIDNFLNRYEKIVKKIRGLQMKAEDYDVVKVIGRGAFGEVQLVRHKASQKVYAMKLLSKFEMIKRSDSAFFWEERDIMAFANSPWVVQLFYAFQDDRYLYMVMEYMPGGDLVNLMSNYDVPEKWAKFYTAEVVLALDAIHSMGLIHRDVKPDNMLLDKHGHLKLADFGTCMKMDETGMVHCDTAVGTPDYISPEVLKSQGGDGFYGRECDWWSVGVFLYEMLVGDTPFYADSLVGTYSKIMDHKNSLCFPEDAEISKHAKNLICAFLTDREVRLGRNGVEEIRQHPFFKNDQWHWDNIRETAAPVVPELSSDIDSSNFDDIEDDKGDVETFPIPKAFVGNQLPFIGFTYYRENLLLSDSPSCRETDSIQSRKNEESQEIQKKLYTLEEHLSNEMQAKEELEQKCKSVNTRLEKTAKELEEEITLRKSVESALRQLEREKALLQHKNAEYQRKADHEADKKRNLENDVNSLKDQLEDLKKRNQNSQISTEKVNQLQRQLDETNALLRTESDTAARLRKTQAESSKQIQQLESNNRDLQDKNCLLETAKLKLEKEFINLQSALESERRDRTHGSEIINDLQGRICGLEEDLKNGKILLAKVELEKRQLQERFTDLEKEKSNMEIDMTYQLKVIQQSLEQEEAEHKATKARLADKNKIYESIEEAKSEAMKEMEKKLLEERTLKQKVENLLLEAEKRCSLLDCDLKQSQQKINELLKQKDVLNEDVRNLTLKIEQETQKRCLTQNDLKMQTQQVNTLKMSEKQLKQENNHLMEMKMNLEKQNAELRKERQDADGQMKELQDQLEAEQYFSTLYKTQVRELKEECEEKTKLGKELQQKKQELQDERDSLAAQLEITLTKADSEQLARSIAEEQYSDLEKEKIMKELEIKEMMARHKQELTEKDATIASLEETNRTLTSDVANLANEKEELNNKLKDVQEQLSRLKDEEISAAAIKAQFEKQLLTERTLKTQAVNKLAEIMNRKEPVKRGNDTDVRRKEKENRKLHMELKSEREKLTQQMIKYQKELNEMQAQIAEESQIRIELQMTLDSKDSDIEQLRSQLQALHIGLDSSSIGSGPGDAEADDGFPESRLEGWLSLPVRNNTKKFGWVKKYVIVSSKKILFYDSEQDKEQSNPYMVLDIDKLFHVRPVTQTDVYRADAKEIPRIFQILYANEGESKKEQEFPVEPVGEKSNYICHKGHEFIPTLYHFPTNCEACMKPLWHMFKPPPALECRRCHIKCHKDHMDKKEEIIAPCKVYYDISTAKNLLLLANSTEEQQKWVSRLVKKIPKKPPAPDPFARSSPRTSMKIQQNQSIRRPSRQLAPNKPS
Source text: A) In the primary reaction, the Rho kinases phosphorylates a single serine or threonine residue in a synthetic FRET-peptide. This FRET-peptide is doubly labeled with a fluorophore at each end—coumarin (the FRET donor) on one end and fluorescein (the FRET acceptor) on the other—and also contains a single phosphorylation site which either overlaps with or lies adjacent to the proteolytic site. B) In the secondary reaction, a site-specific protease recognizes and cleaves the non-phosphorylated FRET-peptide. Cleavage disrupts FRET between the donor and acceptor fluorophores on the FRET-peptide, whereas uncleaved, phosphorylated FRET-peptides maintain FRET. Kinases phosphorylated FRET-peptides cannot be cleaved by the protease. […] Cleavage disrupts FRET and causes a decrease in the fluorescein fluorescence signal and a strong increase in the coumarin fluorescence signal. Therefore the extension of the phosphprylation can be measured by FRET-signal remaining the protease reaction. The assay uses a ratiometric method, which calculates the ratio of donor emission to acceptor emission (the emission ratio) after excitation of the donor fluorophore at 400 nm, to quantitate reaction progress.
All compounds were systematically screened against ROCK1 and ROCK2.
`COc1cccc(CNC(=O)Nc2nc(-c3ccncc3)cs2)c1` [Compound 1af-HCl, 1-(3-methoxybenzyl)-3-(4-(pyridin-4-yl)thiazol-2-yl)urea hydrochloride]: the half-inhibitory concentration (IC50) (commonly the concentration that inhibits the measured activity by half) was determined as 0.014 ± 0.01 µM.

Still in this test, the particulars now being: methanesulfonate; read-out: IC50 ± SD (μM) ROCK2.
With `COc1cccc(CNC(=O)Nc2nc(-c3ccncc3)cs2)c1` [Compound 1af-Mes, 1-(3-methoxybenzyl)-3-(4-(pyridin-4-yl)thiazol-2-yl)urea methanesulfonate], the 50% inhibitory concentration (IC50) was 0.01 µM.

The same test, now with this note: read-out: IC50 ± SD (μM) ROCK2.
As for `COC[C@H](NC(=O)Nc1nc(-c2ccncc2)cs1)c1ccccc1` [Compound 1bk, (R)-1-(2-Methoxy-1-phenylethyl)-3-(4-(pyridin-4-yl)thiazol-2-yl)urea], the 50% inhibitory concentration (IC50) is 11.5 ± 1.24 µM.
The same measure, in the same setting: in the case of `Nc1cccc(CNC(=O)Nc2nc(-c3ccncc3)cs2)c1` [Compound 1ay, 1-(3-Aminobenzyl)-3-(4-(pyridin-4-yl)thiazol-2-yl)urea] it was 0.02 ± 0.008 µM; in that of `O=C(NCc1ccc(O)cc1)Nc1nc(-c2ccncc2)cs1` [Compound 1ax, 1-(4-Hydroxybenzyl)-3-(4-(pyridin-4-yl)thiazol-2-yl)urea], 0.14 ± 0.029 µM; in that of `O=C(NCc1cccc(F)c1)Nc1nc(-c2ccncc2)cs1` [Compound 1aj, 1-(3-Fluorobenzyl)-3-(4-(pyridin-4-yl)thiazol-2-yl)urea], 0.06 µM and 0.05 µM.
Same read-out and setting: with `CCOc1cccc(CNC(=O)Nc2nc(-c3ccncc3)cs2)c1` [Compound 1bw, 1-(3-ethoxybenzyl)-3-(4-(pyridin-4-yl)thiazol-2-yl)urea] the figure was 0.29 ± 0.17 µM; with `COc1cccc([C@H](C)NC(=O)Nc2nc(-c3ccncc3)cs2)c1` [Compound 1bg, (S)-1-(1-(3-Methoxyphenyl)ethyl)-3-(4-(pyridin-4-yl)thiazol-2-yl)urea], 3.25 ± 0.96 µM.
For `COc1cccc(CN(C)C(=O)Nc2nc(-c3ccncc3)cs2)c1` [Compound 1cm, 1-(3-Methoxybenzyl)-1-methyl-3-(4-(pyridin-4-yl)thiazol-2-yl)urea], the IC50 came to 0.015 ± 0.004 µM.
On the same count and under the same terms, with `Cc1ccccc1CNC(=O)Nc1nc(-c2ccncc2)cs1` [Compound 1bt, 1-(2-Methylbenzyl)-3-(4-(pyridin-4-yl)thiazol-2-yl)urea] the figure was 0.12 ± 0.02 µM; with `O=C(NCc1ccccc1Cl)Nc1nc(-c2ccncc2)cs1` [Compound 1ae, 1-(2-Chlorobenzyl)-3-(4-(pyridin-4-yl)thiazol-2-yl)urea], 0.11 ± 0.01 µM.
Still for that read-out and setting: with `O=C(NCc1ccccc1F)Nc1nc(-c2ccncc2)cs1` [Compound 1ac, 1-(2-Fluorobenzyl)-3-(4-(pyridin-4-yl)thiazol-2-yl)urea] the figure was 0.12 ± 0.01 µM; with `O=C(NCc1ccccn1)Nc1nc(-c2ccncc2)cs1` [Compound 1ap, 1-(Pyridin-2-ylmethyl)-3-(4-(pyridin-4-yl)thiazol-2-yl)urea], 1.44 ± 0.22 µM.
Same read-out and setting: with `COCCOc1cccc(CNC(=O)Nc2nc(-c3ccncc3)cs2)c1` [Compound 1bm, 1-(3-(2-Methoxyethoxy)benzyl)-3-(4-(pyridin-4-yl)thiazol-2-yl)urea] the figure was 0.24 ± 0.03 µM.
For the compound `CC(NC(=O)Nc1nc(-c2ccncc2)cs1)c1cccc(F)c1` (centres unmarked) [Compound 1ca, 1-(1-(3-fluorophenyl)ethyl)-3-(4-(pyridin-4-yl)thiazol-2-yl)urea], the IC50 was found to be 0.28 ± 0.13 µM.
On to `O=C(NCc1ccncc1)Nc1nc(-c2ccncc2)cs1` [Compound 1aq, 1-(4-(Pyridin-4-yl)thiazol-2-yl)-3-(pyridin-4-ylmethyl)urea], for which the half-inhibitory concentration (IC50) came to 1.47 ± 0.13 µM.
On to `CC(C)(NC(=O)Nc1nc(-c2ccncc2)cs1)c1ccccc1` [Compound 1cl, 1-(2-Phenylpropan-2-yl)-3-(4-(pyridin-4-yl)thiazol-2-yl)urea], for which the half-inhibitory concentration (IC50) was 0.07 ± 0.02 µM.

Another test addresses ROCK1 (Homo sapiens (Human), UniProt Q13464). Kind of test: FRET-based Z'-Lyte kinase assay, ROCK1.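 Also: kinase phosphorylates a coumarin/fluorescein-labelled FRET peptide, then a protease cleaves unphosphorylated peptide, progress read as donor to acceptor emission ratio after 400 nm excitation.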 To be noted: comparator 1bo (comparator for 1bn not stated). Format: biochemical.
Regarding `Nc1cccc(CNC(=O)Nc2nc(-c3ccncc3)cs2)c1` [Compound 1ay, 1-(3-Aminobenzyl)-3-(4-(pyridin-4-yl)thiazol-2-yl)urea], the “fold decrease in activity compared to 1bo” value was found to be 6 fold.

Staying with this test, now noted: hydrochloride; read-out: IC50 ± SD (μM) ROCK1.
As to `COc1cccc(CNC(=O)Nc2nc(-c3ccncc3)cs2)c1` [Compound 1af-HCl, 1-(3-methoxybenzyl)-3-(4-(pyridin-4-yl)thiazol-2-yl)urea hydrochloride], the 50% inhibitory concentration (IC50) was 0.023 ± 0.01 µM.

The same test, now with this note: methanesulfonate; read-out: IC50 ± SD (μM) ROCK1.
Take `COc1cccc(CNC(=O)Nc2nc(-c3ccncc3)cs2)c1` [Compound 1af-Mes, 1-(3-methoxybenzyl)-3-(4-(pyridin-4-yl)thiazol-2-yl)urea methanesulfonate]: the IC50 stood at 0.03 ± 0.01 µM.

The same test, now with this note: read-out: IC50 ± SD (μM) ROCK1.
In the case of `COC[C@H](NC(=O)Nc1nc(-c2ccncc2)cs1)c1ccccc1` [Compound 1bk, (R)-1-(2-Methoxy-1-phenylethyl)-3-(4-(pyridin-4-yl)thiazol-2-yl)urea], the concentration for half-maximal inhibition (IC50) is 29.5 ± 3.28 µM.
On the same count and under the same terms, with `Nc1cccc(CNC(=O)Nc2nc(-c3ccncc3)cs2)c1` [Compound 1ay, 1-(3-Aminobenzyl)-3-(4-(pyridin-4-yl)thiazol-2-yl)urea] the figure was 0.05 ± 0.009 µM.
The same measure, in the same setting: with `O=C(NCc1ccc(O)cc1)Nc1nc(-c2ccncc2)cs1` [Compound 1ax, 1-(4-Hydroxybenzyl)-3-(4-(pyridin-4-yl)thiazol-2-yl)urea] the figure was 0.38 ± 0.046 µM; with `O=C(NCc1cccc(F)c1)Nc1nc(-c2ccncc2)cs1` [Compound 1aj, 1-(3-Fluorobenzyl)-3-(4-(pyridin-4-yl)thiazol-2-yl)urea], 0.14 µM and 0.1 µM; with `CCOc1cccc(CNC(=O)Nc2nc(-c3ccncc3)cs2)c1` [Compound 1bw, 1-(3-ethoxybenzyl)-3-(4-(pyridin-4-yl)thiazol-2-yl)urea], 2.14 ± 0.62 µM.
Still for that read-out and setting: in the case of `COc1cccc([C@H](C)NC(=O)Nc2nc(-c3ccncc3)cs2)c1` [Compound 1bg, (S)-1-(1-(3-Methoxyphenyl)ethyl)-3-(4-(pyridin-4-yl)thiazol-2-yl)urea] it was 18.7 ± 2.09 µM.
Turning to `COc1cccc(CN(C)C(=O)Nc2nc(-c3ccncc3)cs2)c1` [Compound 1cm, 1-(3-Methoxybenzyl)-1-methyl-3-(4-(pyridin-4-yl)thiazol-2-yl)urea], the half-maximal inhibitory concentration (IC50) is 0.04 ± 0.01 µM.
Still for that read-out and setting: with `Cc1ccccc1CNC(=O)Nc1nc(-c2ccncc2)cs1` [Compound 1bt, 1-(2-Methylbenzyl)-3-(4-(pyridin-4-yl)thiazol-2-yl)urea] the figure was 0.15 ± 0.03 µM.
The same measure, in the same setting: in the case of `O=C(NCc1ccccc1Cl)Nc1nc(-c2ccncc2)cs1` [Compound 1ae, 1-(2-Chlorobenzyl)-3-(4-(pyridin-4-yl)thiazol-2-yl)urea] it was 0.34 ± 0.02 µM.
As for `O=C(NCc1ccccc1F)Nc1nc(-c2ccncc2)cs1` [Compound 1ac, 1-(2-Fluorobenzyl)-3-(4-(pyridin-4-yl)thiazol-2-yl)urea], the half-maximal inhibitory concentration (IC50) worked out at 0.4 ± 0.03 µM.
Take `O=C(NCc1ccccn1)Nc1nc(-c2ccncc2)cs1` [Compound 1ap, 1-(Pyridin-2-ylmethyl)-3-(4-(pyridin-4-yl)thiazol-2-yl)urea]: the IC50 turned out to be 1.82 ± 0.18 µM.
The same measure, in the same setting: with `COCCOc1cccc(CNC(=O)Nc2nc(-c3ccncc3)cs2)c1` [Compound 1bm, 1-(3-(2-Methoxyethoxy)benzyl)-3-(4-(pyridin-4-yl)thiazol-2-yl)urea] the figure was 0.5 ± 0.05 µM; with `CC(NC(=O)Nc1nc(-c2ccncc2)cs1)c1cccc(F)c1` (centres unmarked) [Compound 1ca, 1-(1-(3-fluorophenyl)ethyl)-3-(4-(pyridin-4-yl)thiazol-2-yl)urea], 0.43 ± 0.13 µM; with `O=C(NCc1ccncc1)Nc1nc(-c2ccncc2)cs1` [Compound 1aq, 1-(4-(Pyridin-4-yl)thiazol-2-yl)-3-(pyridin-4-ylmethyl)urea], 2.07 ± 0.29 µM.
Still for that read-out and setting: with `CC(C)(NC(=O)Nc1nc(-c2ccncc2)cs1)c1ccccc1` [Compound 1cl, 1-(2-Phenylpropan-2-yl)-3-(4-(pyridin-4-yl)thiazol-2-yl)urea] the figure was 0.19 ± 0.04 µM.
